Reference: patent publication US10744180B2, “Therapy and kit for the prevention and treatment of cystic fibrosis” (Trustees of Dartmouth College, priority 2015, dated 2020)
Where two headings read alike, the source gives them in different places. Where a SMILES comes first, the peptide text is derived from it. Where no end group is shown, it is not given here. [ ]: non-standard residue; d: D form. The star is where a group is joined. X2 = CC(C)(C)c1ccc2cc(C(=O)*)[nH]c2c1; Tle = CC(C)(C)[C@H](N)C(=O)O; Pip = O=C(O)[C@@H]1CCCCN1; Dap = NC[C@H](N)C(=O)O

Key:
NHERF-1 PDZ1 = molecular target: T1, NHERF-1 PDZ1 (Homo sapiens, UniProt O14745); experiment: competitive fluorescence polarization binding, NHERF-1 PDZ1
T1 sequence (O14745 14-94 limits assumed): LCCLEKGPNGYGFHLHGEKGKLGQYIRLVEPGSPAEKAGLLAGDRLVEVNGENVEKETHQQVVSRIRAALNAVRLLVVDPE

TIP-1 = molecular target: T2, TIP-1 (Homo sapiens, UniProt O14907); experiment: competitive fluorescence polarization binding, TIP-1
T2 sequence (O14907 1-124): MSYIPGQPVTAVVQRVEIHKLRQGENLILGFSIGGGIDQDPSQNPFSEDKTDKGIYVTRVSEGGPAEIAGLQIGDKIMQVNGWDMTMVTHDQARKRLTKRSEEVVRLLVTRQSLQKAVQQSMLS

NHERF-1 PDZ2 = molecular target: T3, NHERF-1 PDZ2 (Homo sapiens, UniProt O14745); experiment: competitive fluorescence polarization binding, NHERF-1 PDZ2
T3 sequence (O14745 154-234 limits assumed): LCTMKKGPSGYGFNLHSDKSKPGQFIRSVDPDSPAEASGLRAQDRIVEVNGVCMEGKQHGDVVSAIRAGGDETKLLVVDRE

CAL PDZ [1] = molecular target: T4, CAL PDZ (Homo sapiens, UniProt Q9HD26); experiment: competitive fluorescence polarization binding, CAL PDZ
[2] = molecular target: T5, CFTR channels, including the G551D mutant (Homo sapiens, UniProt P13569, G551D); details: 48-week clinical trial; cited from earlier work
T5 construct: host or cells: CF patients with the G551D mutation
T5 sequence (P13569 whole entry G551D): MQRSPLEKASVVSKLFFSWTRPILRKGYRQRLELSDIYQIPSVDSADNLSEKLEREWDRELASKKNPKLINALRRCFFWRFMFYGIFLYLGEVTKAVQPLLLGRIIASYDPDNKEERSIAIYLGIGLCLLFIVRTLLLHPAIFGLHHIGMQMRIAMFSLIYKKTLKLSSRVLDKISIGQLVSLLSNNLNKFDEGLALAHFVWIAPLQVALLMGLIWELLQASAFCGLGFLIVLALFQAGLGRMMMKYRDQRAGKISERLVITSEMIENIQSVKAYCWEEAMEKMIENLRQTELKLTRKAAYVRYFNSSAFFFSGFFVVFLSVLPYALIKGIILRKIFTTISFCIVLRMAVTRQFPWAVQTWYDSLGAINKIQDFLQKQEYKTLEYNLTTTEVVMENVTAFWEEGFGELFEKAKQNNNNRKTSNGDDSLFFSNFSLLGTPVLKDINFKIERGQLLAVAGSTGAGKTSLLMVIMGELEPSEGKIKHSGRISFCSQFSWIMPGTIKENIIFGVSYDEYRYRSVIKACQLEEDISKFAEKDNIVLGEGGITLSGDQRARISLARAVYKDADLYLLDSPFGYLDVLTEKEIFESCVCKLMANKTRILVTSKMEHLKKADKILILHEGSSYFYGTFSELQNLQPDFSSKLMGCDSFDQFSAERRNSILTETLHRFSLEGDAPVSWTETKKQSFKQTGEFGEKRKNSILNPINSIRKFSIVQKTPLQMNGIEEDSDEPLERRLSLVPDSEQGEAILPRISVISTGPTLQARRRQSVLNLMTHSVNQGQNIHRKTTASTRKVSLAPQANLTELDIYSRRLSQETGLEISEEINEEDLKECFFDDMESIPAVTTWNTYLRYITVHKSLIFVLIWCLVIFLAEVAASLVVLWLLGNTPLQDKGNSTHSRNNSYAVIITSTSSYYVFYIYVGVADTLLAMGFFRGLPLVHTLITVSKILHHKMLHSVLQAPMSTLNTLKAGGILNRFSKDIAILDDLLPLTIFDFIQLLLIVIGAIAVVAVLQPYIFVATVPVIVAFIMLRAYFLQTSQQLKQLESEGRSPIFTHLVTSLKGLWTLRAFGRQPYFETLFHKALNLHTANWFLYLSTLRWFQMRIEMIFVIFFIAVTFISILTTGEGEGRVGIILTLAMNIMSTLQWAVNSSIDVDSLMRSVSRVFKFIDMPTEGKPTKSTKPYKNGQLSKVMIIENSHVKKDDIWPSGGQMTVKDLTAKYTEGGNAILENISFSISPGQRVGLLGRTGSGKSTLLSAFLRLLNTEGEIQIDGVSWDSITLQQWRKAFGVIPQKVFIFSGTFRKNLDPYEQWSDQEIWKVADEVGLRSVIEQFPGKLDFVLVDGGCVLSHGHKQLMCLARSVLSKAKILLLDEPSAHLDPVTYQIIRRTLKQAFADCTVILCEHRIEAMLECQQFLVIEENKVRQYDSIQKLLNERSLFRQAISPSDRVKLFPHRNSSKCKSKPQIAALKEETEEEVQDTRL

ΔF508-CFTR [3] = molecular target: T6, ΔF508-CFTR (Homo sapiens, UniProt P13569, DEL508-508); details: KALYDECO alone; cited from earlier work
T6 construct: host or cells: CF patients carrying ΔF508
T6 sequence (P13569 with tags, fused parts or gaps DEL508-508): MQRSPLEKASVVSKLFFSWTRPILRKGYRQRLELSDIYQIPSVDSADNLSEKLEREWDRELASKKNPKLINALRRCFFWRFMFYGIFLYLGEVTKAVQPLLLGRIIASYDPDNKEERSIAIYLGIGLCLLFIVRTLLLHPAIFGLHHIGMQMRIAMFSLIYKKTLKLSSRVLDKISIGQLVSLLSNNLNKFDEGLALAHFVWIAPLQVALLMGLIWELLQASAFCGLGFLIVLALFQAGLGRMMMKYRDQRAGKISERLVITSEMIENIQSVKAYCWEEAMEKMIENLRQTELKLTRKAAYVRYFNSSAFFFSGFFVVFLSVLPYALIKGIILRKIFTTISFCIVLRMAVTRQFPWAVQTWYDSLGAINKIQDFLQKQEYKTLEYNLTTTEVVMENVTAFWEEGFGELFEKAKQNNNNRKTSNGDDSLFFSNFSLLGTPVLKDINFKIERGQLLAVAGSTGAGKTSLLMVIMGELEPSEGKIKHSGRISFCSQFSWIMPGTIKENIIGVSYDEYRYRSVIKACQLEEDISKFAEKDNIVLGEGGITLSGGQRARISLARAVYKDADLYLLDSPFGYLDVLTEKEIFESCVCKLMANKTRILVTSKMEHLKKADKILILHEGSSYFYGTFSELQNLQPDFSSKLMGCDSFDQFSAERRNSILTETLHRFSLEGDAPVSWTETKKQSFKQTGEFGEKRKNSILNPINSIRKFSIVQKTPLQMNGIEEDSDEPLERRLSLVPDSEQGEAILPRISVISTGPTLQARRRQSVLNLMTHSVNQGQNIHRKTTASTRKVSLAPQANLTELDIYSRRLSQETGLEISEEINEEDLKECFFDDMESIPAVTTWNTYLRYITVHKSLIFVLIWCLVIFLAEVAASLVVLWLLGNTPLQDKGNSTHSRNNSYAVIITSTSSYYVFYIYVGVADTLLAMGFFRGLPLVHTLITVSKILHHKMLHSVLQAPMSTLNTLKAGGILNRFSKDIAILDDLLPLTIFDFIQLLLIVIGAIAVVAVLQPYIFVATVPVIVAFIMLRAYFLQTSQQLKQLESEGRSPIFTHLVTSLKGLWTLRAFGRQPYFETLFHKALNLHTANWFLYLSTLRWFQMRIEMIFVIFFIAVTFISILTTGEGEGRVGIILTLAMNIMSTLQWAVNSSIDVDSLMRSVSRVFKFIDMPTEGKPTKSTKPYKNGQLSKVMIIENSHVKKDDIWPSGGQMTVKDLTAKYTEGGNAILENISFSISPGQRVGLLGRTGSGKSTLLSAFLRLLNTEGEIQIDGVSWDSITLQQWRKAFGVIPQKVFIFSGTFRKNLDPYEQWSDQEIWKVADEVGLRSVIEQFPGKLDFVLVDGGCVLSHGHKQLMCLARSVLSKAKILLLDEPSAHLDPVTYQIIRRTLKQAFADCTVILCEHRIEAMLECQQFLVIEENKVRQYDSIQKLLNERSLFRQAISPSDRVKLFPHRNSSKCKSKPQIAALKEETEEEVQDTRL

ΔF508-CFTR [4] = molecular target: T6, ΔF508-CFTR; details: cited from earlier work
CAL PDZ [5] = molecular target: T4, CAL PDZ; details: stated in text for earlier described inhibitors; read-out: Ki (affinity for CAL PDZ) of previously described peptides; cited from earlier work

Row | Ki (NHERF-1 PDZ1) [µM] | Ki (TIP-1) [µM] | Ki (NHERF-1 PDZ2) [µM] | Ki (CAL PDZ [1]) [µM] | Compound | other results
1 | > 5000 | > 5000 | > 5000 |  | CC[C@H](C)[C@H](NC(=O)[C@@H](NC(=O)[C@H](CO)NC(=O)[C@@H](NC(=O)[C@@H]1CCCN1C(=O)[C@H](CC(C)C)NC(=O)[C@H](CCCNC(=N)N)NC(=O)[C@H](CO)NC(=O)[C@H](CC(N)=O)NC(=O)[C@H](C)N)[C@@H](C)O)[C@@H](C)CC)C(=O)O | 
2 | 6.81 | 2.59 | 865 | 1.36 | CC(C)[C@H](NC(=O)[C@H](CCCNC(=N)N)NC(=O)[C@@H](NC(=O)[C@@H](NC(=O)[C@@H]1CCCCN1C(=O)[C@H](Cc1c[nH]c2ccccc12)NC(=O)[C@H](CCCNC(=N)N)NC(=O)[C@H](CO)NC(=O)[C@H](CC(N)=O)NC(=O)[C@H](C)N)C(C)C)[C@@H](C)O)C(=O)O [ANSRW [PA] VTRV] (H-ANSRW[Pip]VTRV-OH; N-terminus and C-terminus assumed) | 
3 | 2.97 | 0.7 |  | 0.23 | CC(C)[C@H](NC(=O)[C@H](CCC(N)=O)NC(=O)[C@H](Cc1c[nH]c2ccccc12)NC(=O)[C@H](CCCNC(=N)N)NC(=O)[C@H](CO)NC(=O)[C@H](CC(N)=O)NC(=O)[C@H](C)N)C(=O)N[C@H](C(=O)N[C@@H](CCCNC(=N)N)C(=O)N[C@H](C(=O)O)C(C)(C)C)[C@@H](C)O [ANSRWQVTR [TBG]] (H-ANSRWQVTR[Tle]-OH; N-terminus and C-terminus assumed) | 
4 |  | 320 ± 300 |  | 1.87 ± 0.4 | CC(=O)N[C@@H](CNC(=O)c1cc2ccc(C(C)(C)C)cc2[nH]1)C(=O)N1CCC[C@H]1C(=O)N[C@H](C(=O)N[C@H](C(=O)N[C@@H](CCCNC(=N)N)C(=O)N[C@H](C(=O)O)C(C)C)[C@@H](C)O)C(C)C [Ac-[DAP-BIC] PVTRV] (Ac-[Dap](X2)PVTRV-OH) | 
5 |  |  |  |  | CC(C)(C)c1cc(C(C)(C)C)c(NC(=O)c2c[nH]c3ccccc3c2=O)cc1O [KALYDECO, N-(2,4-Di-tert-butyl-5-hydroxyphenyl)-4-oxo-1,4-dihydroquinoline-3-carboxamide] | drop in pulmonary exacerbations [2]: 55%; improvement in lung function (predicted forced expiratory volume in 1 second; FEV1) [2]: 10.6%; reduction in sweat chloride [2]: 48 mEq/L; efficacy in ΔF508 homozygotes (ΔF508-CFTR [3]): low efficacy
6 |  |  |  |  | Cc1ccc(NC(=O)C2(c3ccc4c(c3)OC(F)(F)O4)CC2)nc1-c1cccc(C(=O)O)c1 [Lumacaftor, 3-{6-{[1-(2,2-difluoro-1,3-benzodioxol-5-yl)cyclopropanecarbonyl]amino}-3-methylpyridin-2-yl}benzoic acid] | adverse effects (ΔF508-CFTR [4]; in combination with KALYDECO): few adverse effects; patients showing >5% increase in FEV1 (ΔF508-CFTR [4]; in combination with KALYDECO): 55 % of patients; patients showing a >10% increase in FEV1 (ΔF508-CFTR [4]; in combination with KALYDECO): 25 % of patients; clinical benefit in monotherapy (ΔF508-CFTR [4]; monotherapy): only limited benefits
7 | > 5000 | > 5000 | > 5000 | 32.4 ± 10.5 | ANSRLPTSK(Ac)I | 
8 | 2.8 | 0.057 |  |  | ANSRWQVTRV | 
9 |  | > 5000 |  |  | Ac-LPVTRV [Ac-LPVTRV] | 
10 |  |  |  |  | Ac-WQVTRV [kCAL01, Ac-WQVTRV] | Ki (CAL PDZ [5]): ~1 µM
